Laboratory results from patent publication US20110014308A1, “NOVEL COMPOSITIONS AND USE THEREOF FOR THE TREATMENT, CO-TREATMENT OR PREVENTION OF INFLAMMATORY DISORDERS” (priority 2007, published 2011).

What was measured:
Format in all cases: cell-based
[1] = system: human aggrecan; experiment: Aggrecan gene expression (mRNA, RT-PCR) in normal human chondrocytes; settings: anabolic gene, % of unstimulated cells (set at 100%), CS 500 mg/L, or both; for Aggrecan (unstim., 4 hrs) level of gene expression: HT 1.925 mg/L (12.5 micromol/L); for Aggrecan (unstim. 4 d) level of gene expression: HT 1.925 mg/L
From the text: (§1) In articular cartilage, the balance between anabolic (build-up) and catabolic (break down) events needs to be maintained in order to prevent hypertrophy and excessive degradation of extracellular matrix (ECM), respectively. The ECM is built up of collagen and proteoglycans that are the products of collagen genes, for example human collagen I or aggrecan genes which are actived during anabolic events. A substance which increases expression of these genes or the respective proteins (i.e. collagen and aggrecan) favors cartilage regeneration and/or build-up. The effect of HT in combination with chondroitin was tested on the expression of human aggrecan or collagen I in normal human chondrocytes (derived from knee) (CC-2550; Cambrex, respectively). OH-tyrosol (HT) was from Cayman Chemicals or from DSM; chondroitin sulfate (from shark) was purchased from Sigma. A control experiment without the compounds was done concomitantly to compare the expression of these genes. Normal human chondrocytes were cultured for 4 hours or 4 days with HT (at 12.5 micromol/L), chondroitin (at 500 mg/L) as well as with both. The level of mRNA was determined by RT-PCR (Richard et al. Mol. Nutr. Food Res. 49, 431-442, 2005) and expressed relative to the level observed in cells cultured without the substances. The given values indicate the level of gene expression (in % of unstimulated cells [set at 100%] for anabolic and anti-catabolic genes; in % of IL1beta-treated cells [set at 100%], for catabolic genes). The combination of HT was used at 12.5 micromol/L (=1.925 mg/L), while the chondroitin sulfate (CS) was tested at 500 mg/L. The results shown in Table 1 indicate that a HT altered the expression of anabolic genes such as aggrecan or collagen. Similar effects were elicited by chondroitin. Yet, when combined the observed increase in gene expression exceeded the expected value reflecting a synergistic interaction.

[2] = system: human collagen I; experiment: Collagen I gene expression (mRNA, RT-PCR) in normal human chondrocytes; settings: anabolic gene, % of unstimulated cells (set at 100%), HT 1.925 mg/L, CS 500 mg/L, or both
From the text: as §1, with “The given values indicate the level of gene expression (in % of unstimulated cells [set at 100%] for anabolic and anti-catabolic genes; in % of IL1beta-treated cells [set at 100%], for catabolic genes). The combination of HT was used at 12.5 micromol/L (=1.925 mg/L), while the chondroitin sulfate (CS) was tested at 500 mg/L. The results shown in Table 1 indicate that a HT altered the expression of anabolic genes such as aggrecan or collagen. Similar effects were elicited by chondroitin. Yet, when combined the observed increase in gene expression exceeded the expected value reflecting a synergistic interaction.” left out

[3] = system: MMP-1; experiment: MMP-1 gene expression (mRNA, RT-PCR) in IL1beta-treated normal human chondrocytes; settings: catabolic gene, % of IL1beta-treated cells (set at 100%), HT 1.925 mg/L, CS 500 mg/L, or both
Experimental: (§2) Catabolic events are controlled by the expression of genes, e.g. those genes that encode matrix metalloproteinases (MMPs) that eventually break down collagen. Of the MMPs, MMP-1 and MMP-3 have a major role in the degradation of the ECM and thus in cartilage erosion. The effect of HT in combination with chondroitin was tested on the expression of human aggrecan or collagen I in normal human chondrocytes (derived from knee) (CC-2550; Cambrex, respectively). OH-tyrosol (HT) was from Cayman Chemicals or from DSM; chondroitin sulfate (from shark) was purchased from Sigma. A control experiment without the compounds was done concomitantly to compare the expression of these genes. Normal human chondrocytes were cultured for 4 hours or 4 days with HT (at 12.5 micromol/L), chondroitin (at 500 mg/L) as well as with both. The level of mRNA was determined by RT-PCR (Richard et al. Mol. Nutr. Food Res. 49, 431-442, 2005) and expressed relative to the level observed in cells cultured without the substances. The given values indicate the level of gene expression (in % of unstimulated cells [set at 100%] for anabolic and anti-catabolic genes; in % of IL1beta-treated cells [set at 100%], for catabolic genes). […]

[4] = system: MMP-2; experiment: MMP-2 gene expression (mRNA, RT-PCR) in IL1beta-treated normal human chondrocytes; settings: catabolic gene, % of IL1beta-treated cells (set at 100%), HT 1.925 mg/L, CS 500 mg/L, or both
Experimental: as §2

[5] = system: MMP-13; experiment: MMP-13 gene expression (mRNA, RT-PCR) in IL1beta-treated normal human chondrocytes; settings: catabolic gene, % of IL1beta-treated cells (set at 100%), HT 1.925 mg/L, CS 500 mg/L, or both
Experimental: as §2

[6] = system: IL-1beta; experiment: IL-1beta gene expression (mRNA, RT-PCR) in IL1beta-treated normal human chondrocytes; settings: catabolic gene, % of IL1beta-treated cells (set at 100%), HT 1.925 mg/L, CS 500 mg/L, or both
Experimental: as §1, with “The” for “In articular cartilage, the balance between anabolic (build-up) and catabolic (break down) events needs to be maintained in order to prevent hypertrophy and excessive degradation of extracellular matrix (ECM), respectively. The ECM is built up of collagen and proteoglycans that are the products of collagen genes, for example human collagen I or aggrecan genes which are actived during anabolic events. A substance which increases expression of these genes or the respective proteins (i.e. collagen and aggrecan) favors cartilage regeneration and/or build-up. The”

Row | Molecule | Aggrecan (unstim., 4 hrs) level of gene expression [1] | Aggrecan (unstim. 4 d) level of gene expression [1] | Collagen 1 (unstim. 4 d) level of gene expression [2] | MMP-1 (stim., 4 d) level of gene expression [3] | MMP-2 (stim., 4 hrs) level of gene expression [4] | MMP-13 (stim., 4 hrs) level of gene expression [5] | IL-1beta (stim., 4 hrs) level of gene expression [6]
1 | chondroitin sulfate [CS] | 113% | 97% | 103% | 122% | 116% | 90% | 91%
2 | OCCc1ccc(O)c(O)c1 [HT, 2-(3,4-dihydroxyphenyl)-ethanol] | 115% | 118% | 113% | 109% | 102% | 96% | 83%
